The text below walks through data of publication PMC8632000 (Frontiers in Pharmacology, 2021).

SMILES strings stand for the structures.

For data set [1] the following is noted: cited from earlier work.
Data set [2] in a line: Population pharmacokinetic model (NONMEM) of vancomycin plasma concentration-time data in surgical patients.
Method: Only patients who underwent a major surgical procedure and were above the age of 18 years were included in the study. […] The dose selection and duration of infusion were at the discretion of the attending medical practitioners. […] Patient demographics, including age, weight, sex, type of disease, and serum creatinine (SCR) were recorded from patient files, and creatinine clearance (CRCL) was calculated using the Cockcroft and Gault equation ([Cockcroft and Gault, 1976]).
Briefly, separation was carried out using a C18 column (125 mm × 4.6 mm, 5 µm) with UV detection at 205 nm. The mobile phase was a combination of buffer (50 mM ammonium dihydrogen phosphate) at pH 2.2 and acetonitrile (88:12 v/v). The method was linear over the concentration range of 0.25–60 mg/l.
The population pharmacokinetic model was developed using nonlinear mixed effect modeling (NONMEM version 7.4.4) software provided by Icon Clinical Research LLC, New York, NY, USA, along with the Perl-speaks-NONMEM (PsN) toolkit ([Lindbom et al., 2005]). The execution and management of the model as well as report generation were performed with the aid of Pirana (Certara, Princeton, NJ, USA) ([Keizer et al., 2011]). The actual process of modeling began with the development of one-compartment and two-compartment base models using the first-order conditional estimation method with interaction (FOCE-I) to obtain pharmacokinetic parameter estimates without any covariates. […] The exponential random-effect model was used to describe the between-subject variability (BSV) on pharmacokinetic (PK) parameters, while additive, proportional, and combined residual error models were tested to describe the residual error between the observed and predicted concentrations of vancomycin.
The influence of different covariates (age, sex, WT, SeCR, and CRCL) on CL and Vd was determined by stepwise covariate modeling (SCM) in which the covariates were included in the model by forward inclusion and backward elimination processes. […]
Where [3] appears, read: median of 1,000 bootstrap estimates.

Take `CN[C@H](CC(C)C)C(=O)N[C@H]1C(=O)N[C@@H](CC(N)=O)C(=O)N[C@H]2C(=O)N[C@H]3C(=O)N[C@H](C(=O)N[C@H](C(=O)O)c4cc(O)cc(O)c4-c4cc3ccc4O)[C@H](O)c3ccc(c(Cl)c3)Oc3cc2cc(c3O[C@@H]2O[C@H](CO)[C@@H](O)[C@H](O)[C@H]2O[C@H]2C[C@](C)(N)[C@H](O)[C@H](C)O2)Oc2ccc(cc2Cl)[C@H]1O` [Vancomycin]: the “Vancomycin CL in obese patients” value in data set [1] (obese patients, ref Blouin et al., 1982, Bauer et al., 1998, Adane et al., 2015) is recorded as 6.54 to 11.8 L/h. Moreover, the “Reported CL values in other studies” value in data set [1] (ref Buelga et al., 2005, Llopis-Salvia and Jiménez-Torres, 2006, Staatz et al., Thomson et al., 2009, Tanaka et al., 2010, Udy et al., 2013, Escobar et al., 2014, Usman et al., 2018) was 1.08 to 2.99 L/h. In addition, the “Vd, lower end of reported range” value in data set [1] (ref Escobar et al., 2014) was 11.8 L. Besides, in data set [1] (ref Lin et al., 2016), the “Vd, upper end of reported range” value is 101 L. Also, in data set [1] (ref Matzke et al., 1984, Rodvold et al., 1988, Ducharme et al., 1994), the “Fraction of drug excreted via renal elimination” value is recorded as 80%–90%. Also, in data set [2] (setting [3]), the “CL, bootstrap estimate” value is recorded as 2.46 L/h and the “V, bootstrap estimate” value was 22.7 L. The “V (volume of distribution), final estimate” value in data set [2] (one-compartment final model, 58 patients) was 22.6 L.
